Experimental data from US20260274892A1, “MACROCYCLIC BROAD SPECTRUM ANTIBIOTICS” (RQx Pharmaceuticals, Inc., priority 2017, published 2026).

How the values were obtained:
[1] = tested on: Escherichia coli ATCC 25922; assay: Minimum inhibitory concentration (MIC), CLSI broth micro-dilution, E. coli; type: cell-based; settings: Escherichia coli, ATCC25922, 22 h
Outline: (§1)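 Colonies grown 20 h at 35° C on Trypticase Soy agar (MRSA) or Luria agar (E. coli) were suspended in cation-adjusted Mueller Hinton broth with 0.002% Tween-80. Suspensions were added at OD600 0.0005 to 10-point twofold compound dilutions, then incubated 22 h at 35° C.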

[2] = tested on: Methicillin Resistant Staphylococcus aureus strain USA 200; assay: Minimum inhibitory concentration (MIC), CLSI broth micro-dilution, S. aureus; type: cell-based; settings: Staphylococcus aureus, MRSA / USA200, MRSA USA 200, cation adjusted Mueller Hinton Broth + 0.002% Tween-80, 35° C., 22 hours
Outline: as §1

[3] = Table 6, cation adjusted Mueller Hinton Broth + 0.002% Tween-80, 35° C.

SMILES | MIC [1, 3] | MIC ([2]; Table 6) | MIC ([1]; Table 8, cation adjusted Mueller Hinton Broth + 0.002% Tween-80, 35° C.) | MIC ([2]; Table 8)
Cc1nc(-c2ccc(OC3CCCCC3)cc2)nc(C)c1C(=O)N[C@@H](CCN)C(=O)N(C)[C@@H]1C(=O)N[C@@H](C)C(=O)N[C@H](C(=O)NCC#N)Cc2ccc(OCCN)c(c2)-c2cc1ccc2OCCN (racemic) [Compound 337, rac-(8S,11S,14S)-3,18-bis(2-aminoethoxy)-N-(cyanomethyl)-11-methyl-14-[methyl-[rac-(2S)-4-amino-2-[[2-[4-(cyclohexoxy)phenyl]-4,6-dimethyl-pyrimidine-5-carbonyl]amino]butanoyl]amino]-10,13-dioxo-9,12-diazatricyclo[13.3.1.12,6]icosa-1(18),2(20),3,5,15(19),16-hexaene-8-carboxamide] | 0.11 µM | 0.012 µM |  | 
CCCCCOc1ccc(-c2nc(C)c(C(=O)N[C@@H](CCN)C(=O)N(C)[C@@H]3C(=O)N[C@@H](C)C(=O)N[C@H](C(=O)O)Cc4ccc(O)c(c4)-c4cc3ccc4OCCN)c(C)n2)cc1 (racemic) [Compound 648, rac-(8S,11S,14S)-18-(2-aminoethoxy)-3-hydroxy-11-methyl-14-[methyl-[rac-(2S)-4-amino-2-[[4,6-dimethyl-2-(4-pentoxyphenyl)pyrimidine-5-carbonyl]amino]butanoyl]amino]-10,13-dioxo-9,12-diazatricyclo [13.3.1.12,6]icosa-1(18),2(20),3,5,15(19), 16-hexaene-8-carboxylic acid] |  |  | 0.1 µM | 0.28 µM
CCCCCOc1ccc(-c2nc(C)c(C(=O)N[C@@H](CCN)C(=O)N(C)[C@@H]3C(=O)N[C@@H](C)C(=O)N[C@H](C(=O)NCC#N)Cc4ccc(OCCN)c(c4)-c4cc3ccc4OCCN)c(C)n2)cc1 (racemic) [Compound 328, rac-(8S,11S,14S)-3,18-bis(2-aminoethoxy)-N-(cyanomethyl)-11-methyl-14-[methyl-[rac-(2S)-4-amino-2-[[4,6-dimethyl-2-(4-pentoxyphenyl)pyrimidine-5-carbonyl]amino]butanoyl]amino]-10,13-dioxo-9,12-diazatricyclo[13.3.1.12,6]icosa-1(18),2(20),3,5,15(19),16-hexaene-8-carboxamide] | 0.07 µM | 0.0093 µM |  | 
CCc1ccc(-c2nc(C)c(C(=O)N[C@@H](CCN)C(=O)N(C)[C@@H]3C(=O)N[C@@H](C)C(=O)N[C@H](C(=O)NCC#N)Cc4ccc(OCCN)c(c4)-c4cc3ccc4OCCN)c(C)n2)cc1 (racemic) [Compound 260, rac-(8S,11S,14S)-3,18-bis(2-aminoethoxy)-N-(cyanomethyl)-11-methyl-14-[methyl-[rac-(2S)-4-amino-2-[[2-(4-ethylphenyl)-4,6-dimethyl-pyrimidine-5-carbonyl]amino]butanoyl]amino]-10,13-dioxo-9,12-diazatricyclo[13.3.1.12,6]icosa-1(18),2(20),3,5,15(19),16-hexaene-8-carboxamide] | 0.45 µM | 0.079 µM |  | 

Second part, led by results:

MIC [1, 3] | MIC ([2]; Table 6) | SMILES | MIC ([1]; Table 8, cation adjusted Mueller Hinton Broth + 0.002% Tween-80, 35° C.) | MIC ([2]; Table 8)
0.13 µM | 0.016 µM | CCCC1(Oc2ccc(-c3nc(C)c(C(=O)N[C@@H](CCN)C(=O)N(C)[C@@H]4C(=O)N[C@@H](C)C(=O)N[C@H](C(=O)NCC#N)Cc5ccc(OCCN)c(c5)-c5cc4ccc5OCCN)c(C)n3)cc2)CC1 (racemic) [Compound 346, rac-(8S,11S,14S)-3,18-bis(2-aminoethoxy)-N-(cyanomethyl)-11-methyl-14-[methyl-[rac-(2S)-4-amino-2-[[4,6-dimethyl-2-[4-(1-propylcyclopropoxy)phenyl]pyrimidine-5-carbonyl]amino]butanoyl]amino]-10,13-dioxo-9,12-diazatricyclo[13.3.1.12,6]icosa-1(18),2(20),3,5,15(19),16-hexaene-8-carboxamide] |  | 
0.38 µM | 0.023 µM | Cc1nc(-c2ccc(C(C)(C)C)cc2)c(N(C)C)cc1C(=O)N[C@@H](CCN)C(=O)N(C)[C@@H]1C(=O)N[C@@H](C)C(=O)N[C@H](C(=O)NCC#N)Cc2ccc(OCCN)c(c2)-c2cc1ccc2OCCN (racemic) [Compound 408, rac-(8S,11S,14S)-3,18-bis(2-aminoethoxy)-N-(cyanomethyl)-11-methyl-14-[methyl-[rac-(2S)-4-amino-2-[[6-(4-tert-butylphenyl)-5-(dimethylamino)-2-methyl-pyridine-3-carbonyl]amino]butanoyl]amino]-10,13-dioxo-9,12-diazatricyclo[13.3.1.12,6]icosa-1(18),2(20),3,5,15(19),16-hexaene-8-carboxamide] |  | 
4 µM | 0.047 µM | Cc1nc(-c2ccc(C(C)(C)C)cc2)nc(C)c1C(=O)NCC(=O)N[C@@H](CCN)C(=O)N(C)[C@@H]1C(=O)N[C@@H](C)C(=O)N[C@H](C(=O)NCC#N)Cc2ccc(OCCN)c(c2)-c2cc1ccc2OCCN (racemic) [Compound 470, rac-(8S,11S,14S)-3,18-bis(2-aminoethoxy)-N-(cyanomethyl)-11-methyl-14-[methyl-[rac-(2S)-4-amino-2-[[2-[[2-(4-tert-butylphenyl)-4,6-dimethyl-pyrimidine-5-carbonyl]amino]acetyl]amino]butanoyl]amino]-10,13-dioxo-9,12-diazatricyclo[13.3.1.12,6]icosa-1(18),2(20),3,5,15(19),16-hexaene-8-carboxamide] |  | 
0.35 µM | 0.063 µM | Cc1nc(-c2ccc(C3(C)CC3)cc2)nc(C)c1C(=O)N[C@@H](CCN)C(=O)N(C)[C@@H]1C(=O)N[C@@H](C)C(=O)N[C@H](C(=O)NCC#N)Cc2ccc(O)c(c2)-c2cc1ccc2OCCN (racemic) [Compound 543, rac-(8S,11S,14S)-18-(2-aminoethoxy)-N-(cyanomethyl)-3-hydroxy-11-methyl-14-[methyl-[rac-(2S)-4-amino-2-[[4,6-dimethyl-2-[4-(1-methylcyclopropyl)phenyl]pyrimidine-5-carbonyl]amino]butanoyl]amino]-10,13-dioxo-9,12-diazatricyclo[13.3.1.12,6]icosa-1(18),2(20),3,5,15(19),16-hexaene-8-carboxamide] |  | 
0.19 µM | 0.023 µM | Cc1nc(-c2ccc(C(C)(C)C)cc2)nc(N(C)C)c1C(=O)N[C@@H](CCN)C(=O)N(C)[C@@H]1C(=O)N[C@@H](C)C(=O)N[C@H](C(=O)NCC#N)Cc2ccc(OCCN)c(c2)-c2cc1ccc2OCCN (racemic) [Compound 424, rac-(8S,11S,14S)-3,18-bis(2-aminoethoxy)-N-(cyanomethyl)-11-methyl-14-[methyl-[rac-(2S)-4-amino-2-[[2-(4-tert-butylphenyl)-4-(dimethylamino)-6-methyl-pyrimidine-5-carbonyl]amino]butanoyl]amino]-10,13-dioxo-9,12-diazatricyclo[13.3.1.12,6]icosa-1(18),2(20),3,5,15(19),16-hexaene-8-carboxamide] |  | 
1.1 µM | 0.051 µM | CCCCCCc1ccc(C(=O)N2C[C@@H](CN)C[C@H]2C(=O)N(C)[C@@H]2C(=O)N[C@@H](C)C(=O)N[C@H](C(=O)NCC#N)Cc3ccc(OCCN)c(c3)-c3cc2ccc3OCCN)c(C)c1 (racemic) [Compound 461, rac-(8S,11S,14S)-3,18-bis(2-aminoethoxy)-N-(cyanomethyl)-11-methyl-14-[methyl-[rac-(2S,4R)-4-(aminomethyl)-1-(4-hexyl-2-methyl-benzoyl)pyrrolidine-2-carbonyl]amino]-10,13-dioxo-9,12-diazatricyclo[13.3.1.12,6]icosa-1(18),2(20),3,5,15(19),16-hexaene-8-carboxamide] |  | 
